We go through one compound from patent US7049305B2, “Bile-acid conjugates providing for sustained systemic concentration of drugs” (XenoPort, Inc., priority 2000, dated 2006).

The assay has as its target T1, rPEPT1 (Rattus norvegicus, UniProt P51574).
T1 construct: expressed in transfected cells; host or cells: CHO cells
T1 sequence (P51574 1-710): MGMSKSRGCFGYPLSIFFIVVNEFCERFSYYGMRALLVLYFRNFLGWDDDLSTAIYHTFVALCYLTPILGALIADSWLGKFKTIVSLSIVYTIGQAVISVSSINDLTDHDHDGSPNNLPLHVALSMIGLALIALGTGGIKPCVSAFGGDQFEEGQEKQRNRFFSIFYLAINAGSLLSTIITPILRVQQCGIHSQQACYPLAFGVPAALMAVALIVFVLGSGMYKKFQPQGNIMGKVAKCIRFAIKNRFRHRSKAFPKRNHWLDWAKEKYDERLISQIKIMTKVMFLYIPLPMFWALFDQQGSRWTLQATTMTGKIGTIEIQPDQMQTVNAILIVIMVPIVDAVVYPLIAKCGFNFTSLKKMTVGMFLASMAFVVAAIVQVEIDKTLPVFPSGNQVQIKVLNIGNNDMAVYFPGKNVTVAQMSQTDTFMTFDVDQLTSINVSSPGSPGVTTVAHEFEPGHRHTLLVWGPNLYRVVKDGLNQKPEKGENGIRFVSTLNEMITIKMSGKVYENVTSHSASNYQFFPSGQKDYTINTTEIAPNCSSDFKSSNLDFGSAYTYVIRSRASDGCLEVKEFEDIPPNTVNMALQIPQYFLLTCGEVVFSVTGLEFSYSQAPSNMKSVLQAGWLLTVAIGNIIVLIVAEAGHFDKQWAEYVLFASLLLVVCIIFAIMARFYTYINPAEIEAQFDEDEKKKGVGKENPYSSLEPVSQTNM
The assay can be described thus: Transport-induced currents in Xenopus oocytes expressing rPEPT1. The class given is cell-based. Particulars: response relative to Gly-Sar, test compound 1 mM. As for the experimental part: Rat and human PEPT1 and PEPT2 expressing CHO cell lines were prepared as described in PCT Application WO01/20331. Gabapentin-containing dipeptides were evaluated for interaction with the peptide transporters using a radiolabeled substrate uptake assay in a competitive inhibition format, as described in PCT Application WO01/20331. Transport-induced currents were also measured in Xenopus oocytes transfected with rat and human PEPT1 and PEPT2.

Consider `NCC(=O)NCC1(CC(=O)O)CCCCC1` [Gly-Gabapentin], for which the “% Max. (Gly-Sar)” value came out at 76%.
